In test [1] the target is T1, γHV68 v-Bcl-2 (wild-type) (Murid herpesvirus 4, UniProt P89884).
T1 construct: we expressed amino acids 1–137 of the v-Bcl-2, removing the carboxy-terminal hydrophobic domain; made in house; host or cells: E. coli BL21(DE3)
Put plainly: NMR titration of BH3 peptides with wild-type γHV68 v-Bcl-2. In kind it is binding, murine γ-herpesvirus 68. Conditions: 303 K; for binding over the concentration range of the titration: pH 7.8, peptide up to 320 μM. The procedure:
(§1) Wild-type and SGR/AAA v-Bcl-2 used in NMR studies were expressed in E. coli BL21(DE3) strain grown on M9 media. For wild-type v-Bcl-2, uniformly ^15N-labeled, uniformly ^15N,^13C-labeled, and uniformly ^15N,^13C-labeled, 75% ^2H samples were prepared with media containing either ^15NH4Cl, ^15NH4Cl plus [U-^13C]glucose or ^15NH4Cl, [U-^13C]glucose, and 75% ^2H2O, respectively. For SGR/AAA v-Bcl-2, a ^15N-labeled sample was prepared with media containing ^15NH4Cl as the sole nitrogen source. Soluble protein was purified by Ni^2+-affinity chromatography. NMR samples contained 0.5–1.0 mM protein in either 90% H2O with 10% ^2H2O or 100% ^2H2O, 20 mM ^2H-TRIS (pH 7.8), and 5 mM ^2H-dithiothreitol.
(§2) All NMR experiments were acquired at 303 K on a Bruker DRX500, DRX600 or DRX800 NMR spectrometer. […] Side-chain ^1H and ^13C NMR signals were assigned from HCCH-TOCSY experiments. Stereospecific assignments of valine and leucine methyl groups were obtained from an analysis of the ^13C-^13C coupling patterns observed for biosynthetically directed, fractionally ^13C-labeled γHV68 v-Bcl-2 [87]. NOE distance restraints were obtained from three-dimensional ^15N- and ^13C-edited NOESY spectra acquired with a mixing time of 80 ms. Slowly exchanging amide protons were identified in an ^15N-HSQC spectrum recorded immediately after exchanging the protein into a buffer prepared with ^2H2O.
(§3) Binding of the Bak 16-mer ([…]), the Bax 16-mer ([…]), the Bad 25-mer ([…]), and a D83A mutant Bak 16-mer ([…]) to wild-type v-Bcl-2, and binding of the Bax 16-mer to SGR/AAA v-Bcl-2 was assessed by NMR titration. Each peptide was titrated from a concentrated stock solution into a sample of ^13C-labeled protein, and binding was monitored from changes in a ^13C methyl-HSQC spectrum. For wild-type v-Bcl-2, ^13C-HSQC spectra were recorded on a uniformly ^13C,^15N-labeled protein sample (120 μM) in the presence of increasing amounts of peptide (40, 80, 160, 240, and 320 μM). For SGR/AAA v-Bcl-2, ^15N-HSQC spectra were recorded on a sample of uniformly ^15N-labeled protein in the presence of increasing amounts of peptide.

For test [2], the system named is Bcl-xL. As to conditions: vs Bak peptide; no reference in the sentence, preceding paragraph cites ref [53]; cited from earlier work.
The test system of test [3] is KSHV v-Bcl-2. Conditions: ref [9]; cited from earlier work. The source says:
Each of these proteins interacts with BH3 peptides from Bak and Bax, but the viral proteins differ from the host proteins in their inability to bind the Bad BH3 peptide. […] In this property, the γHV68 and KSHV v-Bcl-2 proteins resemble cellular Mcl-1, which also fails to bind Bad BH3 peptide and is important for development of B cells, one of the cell types in which γHV68 establishes latency. One possible explanation for the lack of binding to the Bad BH3 peptide is that v-Bcl-2 binding to Bad is detrimental to the virus. Bad was recently found to be essential for assembly of a holoenzyme tha ...

Test [4] addresses T2, γHV68 v-Bcl-2 (wild-type) (Murid herpesvirus 4, UniProt P89884).
T2 construct: we expressed amino acids 1–137 of the v-Bcl-2, removing the carboxy-terminal hydrophobic domain; made in house; host or cells: E. coli BL21(DE3)
T2 sequence (P89884 whole entry, looked up): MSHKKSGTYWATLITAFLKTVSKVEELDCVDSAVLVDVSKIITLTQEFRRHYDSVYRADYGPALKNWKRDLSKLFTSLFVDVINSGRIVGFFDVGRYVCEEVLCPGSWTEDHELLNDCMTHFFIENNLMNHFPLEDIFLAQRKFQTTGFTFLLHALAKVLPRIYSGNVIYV
Kind of test: NMR titration of BH3 peptides with wild-type γHV68 v-Bcl-2. It counts as binding, murine γ-herpesvirus 68. As to conditions: changes in 13C methyl-HSQC spectrum, 120 μM 13C,15N-labeled protein, peptide 40, 80, 160, 240, and 320 μM, 20 mM 2H-TRIS pH 7.8, 5 mM 2H-dithiothreitol, 303 K. The procedure: as §1, §2, §3

For test [5], the target named is Bcl-2 and Bcl-xL. As to conditions: Bad BH3 peptide; ref [9]; read-out: affinity; cited from earlier work.
For test [6], the system named is Mcl-1. Conditions: ref [70],[71]; cited from earlier work. The source says: In this property, the γHV68 and KSHV v-Bcl-2 proteins resemble cellular Mcl-1, which also fails to bind Bad BH3 peptide and is important for development of B cells, one of the cell types in which γHV68 establishes latency. One possible explanation for the lack of binding to the Bad BH3 peptide is that v-Bcl-2 binding to Bad is detrimental to the virus. Bad was recently found to be essential for assembly of a holoenzyme tha ...

Ends that are not written are not given here. A value given as a limit tells only on which side of the number the result lay.

As for “GQVGRQLAIIGADINR [D83A mutant Bak peptide]”, in test [1], the “binding over the concentration range of the titration” value is reported as “no binding”. The same sequence displayed a Kd in test [1] (changes in 13C methyl-HSQC spectrum, 120 μM 13C,15N-labeled protein, peptide 40, 80, 160, 240, and 320 μM, 20 mM 2H-TRIS pH 7.8, 5 mM 2H-dithiothreitol) greater than 300 µM. For the same sequence, the “fold reduction of affinity for Bcl-xL by D83A mutation” value in test [2] was “more than 120 fold”.

KKLSECLKRIGDELDS [Bax peptide]: in test [1] (pH 7.8), the “exchange with γHV68 v-Bcl-2 on the NMR timescale” value is given as “slow exchange”. Further, the “binding to KSHV v-Bcl-2” value in test [3] is “interacts”.

Consider “NLWAAQRYGRELRRMSDEFVSFKK [Bad BH3 peptide, Bad 25-mer ([…]), BH3 peptide from proapoptotic Bad]”, for which the “binding over the concentration range of the titration” value in test [1] is given as “bound weakly”. The Kd in test [4] was greater than 300 µM; in test [5], 0.0006 to 0.015 µM. The “binding of Bad BH3 peptide to Mcl-1” value in test [6] is on record as “fails to bind”. Moreover, the “binding to KSHV v-Bcl-2” value in test [3] is given as “much lower affinity than is observed for Bcl-2 or Bcl-xL”.

Source of the values: paper PMC1238745, “A Surface Groove Essential for Viral Bcl-2 Function During Chronic Infection In Vivo” (PLoS Pathogens, 2005).
